System: Transport facilitation protein genes
Experiment: DNA chip mRNA expression in yeast, transport facilitation protein genes (Table 5)
Assay type: cell-based, Saccharomyces cerevisiae S288C
Experimental: Yeast (Saccharomyces cerevisiae S288C (α SUC2mal mel gap2 CUP1)) were incubated at 25° C. on YPD medium (yeast extract 1%, polypepton 2%, glucose 2%). One of toxic chemical substances was added to the cells at logarithmic growth phase, and the cells were further incubated for two hours. Cells were cultured without any chemical substance in the same condition, and were used as control. Concentrations of the chemical substances were defined to inhibit the growth of the yeast but not lead to death.
After completion of the incubation, the culture was centrifuged to collect the cells. To the cells, sodium acetate buffer (50 mM sodium acetate, 10 mM EDTA, 1% SDS) was added, and the mixture was shaken at 65° C. for five minutes, followed by returning to room temperature, and obtaining the supernatant, of which the procedures were repeated two times. To the supernatant, ½ amount of a solution of phenol/chloroform was added, and the mixture was centrifuged to give a supernatant, which was added with an equal amount of chloroform, and the mixture was centrifuged to give a supernatant. To the supernatant, an equal amount of isopropanol containing 0.3 M sodium acetate was added, and the mixture was allowed to stand at room temperature for 30 minutes, after which the mixture was centrifuged to give a sediment of the whole RNAs. Seventy % ethanol was added to the sediment, and the mixture was again centrifuged to give a sediment, which was then dried and dissolved in water. mRNA was isolated from the whole RNAs as followings. In view of the fact that a poly A chain is attached to the 3′ terminus of mRNA, a polynucleotide having a poly T structure which was immobilized on the surface of latex beads was used to trap the mRNA, and then the mRNA was washed and eluted with spine column (Oligotex-dT30<Super>mRNA Purification Kit, Takara). Reverse transcription of the mRNA was conducted with a reverse transcriptase (Super Script II Reverse Transcriptase; catalogue No. 18064-014, GibcoBRL) using fluorescence-labeled nucleotides to give cDNAs that were introduced with Cy3-dUTP or Cy5-dUTP during the reverse transcription.
The labeled cDNAs were dissolved in TE buffer (10mM Tris-HCl/1 mM EDTA, pH8.0), and the solution was dropped on the DNA chip containing the whole genes of yeast (DNA Chip Research Inc. Japan) so that the cDNAs were hybridized on the DNA chip at 65° C. for over 12 hours. The fluoresces intensity of the DNA chip was read with a scanner, and the ratio relative to the fluorescence intensity resulting from the absence of chemical substance was estimated as the following, which is shown in Tables 1 to 9: […]

Measured: The level of expressed mRNA in the presence of chemical substance/The level of expressed mRNA in the absence of chemical substance

manganese ethylenebis(dithiocarbamate) [(8)]
1.0: yeast gene YBR068C | yeast gene YBR294W | yeast gene YCR098C | yeast gene YFL041W | yeast gene YGR065C | yeast gene YGR096W | yeast gene YGR138C
0.7: yeast gene YCL025C | yeast gene YCR037C | yeast gene YDR387C | yeast gene YGL008C | yeast gene YGL255W | yeast gene YGR191W
0.6: yeast gene YDR039C | yeast gene YDR497C | yeast gene YEL063C
1.2: yeast gene YCL038C | yeast gene YDL245C | yeast gene YDR270W | yeast gene YDR298C | yeast gene YDR342C | yeast gene YDR343C | yeast gene YDR345C
0.8: yeast gene YBL030C | yeast gene YBL099W | yeast gene YBR132C | yeast gene YCR024C-A | yeast gene YDL128W | yeast gene YFL011W | yeast gene YGL104C | yeast gene YGL167C | yeast gene YGR082W | yeast gene YGR197C
1.5: yeast gene YFL054C
1.9: yeast gene YDR086C
0.9: yeast gene YBR207W | yeast gene YBR293W | yeast gene YBR295W | yeast gene YDR038C | yeast gene YEL027W | yeast gene YEL065W | yeast gene YFL050C | yeast gene YGL006W
1.1: yeast gene YBR127C | yeast gene YDL198C | yeast gene YDL210W | yeast gene YGR055W
1.3: yeast gene YBR052C | yeast gene YER053C
0.5: yeast gene YBR298C

From patent US8192962B2, “Processes for detecting toxic substances” (Daikin Industries, Ltd., priority 2001, dated 2012)
